For orientation: IC50 means the concentration that inhibits the measured activity by half. Read a low IC50 as inhibition by little substance.

In brackets after ≈: the same amount, converted by molar mass.

The experiment deals with Escherichia coli (ATCC 33456). Nature of the experiment: Ampicillin IC50 in E. coli. Format: cell-based. The following applies: ATCC33456. The protocol: The ability of antibiotics to inhibit the uptake of MDP-1 in Escherichia coli was investigated. Escherichia coli (ATCC 33456) were grown in LB medium at 37° C. under 5% CO2 to an OD600=0.5, as described above. […] Escherichia coli were incubated with ampicillin for 1 hour at 37° C. under 5% CO2, and 60 μL of MDP-1 stock solutions (1 mM in PBS) were added, generating a 20 μM MDP concentration. Escherichia coli were incubated with MDPs in the presence of ampicillin for 1 hour at 37° C. under 5% CO2 in an incubator shaker. At this stage, a small aliquot of the bacterial culture was plated to determine the CFUs of bacteria in the MDP solution. Escherichia coli were harvested by centrifuging and the resulting pellets were washed 3 times with 10 mL PBS. The intracellular fluorescence of the bacteria was determined as described in FIG. 3a.

In the case of `CC1(C)S[C@@H]2[C@H](NC(=O)[C@H](N)c3ccccc3)C(=O)N2[C@H]1C(=O)O` [ampicillin], inhibition was half-maximal at 3 µg/mL (≈ 8.59 µM) (IC50).

The values above are taken from patent publication US10646580B2, “Oligosaccharide conjugates for targeting bacteria and uses related thereto” (priority 2011, dated 2020).
